Laboratory results: patent US20210015850A1, “COMPOSITION FOR IMPROVING INTESTINAL BARRIER FUNCTION” (SUNTORY HOLDINGS LIMITED, priority 2017, published 2021)

Test system: Caco-2 cells
Test: Intestinal barrier function improvement: suppression of cytokine-induced TEER reduction in Caco-2 monolayer
Type: cell-based, human
Conditions: 10 μM; gallate vs non-gallate in the same evaluation
Experimental: Caco-2 cells were cultured for three weeks at 37° C. in Transwell (manufactured by Millicell Corporation) using DMEM (Dulbecco's modified Eagle's medium). A medium was removed from a plate of cultured Caco-2 cells, and the well was washed 3 times with serum-free DMEM. The well was filled with the medium. Then, the transepithelial electrical resistance (TEER) of Caco-2 monolayer cells was measured by Millicell-ERS (manufactured by Millipore Corporation). Cells (TEER≥1000 Ω·cm^2) determined that a sufficient tight junction was formed were selected, and used for the next screening. Then, to test solutions (media) on both apical and basolateral membrane sides, a sample, TNFα (40 ng/mL), IL-1β (20 ng/mL), and IFNγ (10 ng/mL) were added, followed by cultivating for 48 hours. The sample was dissolved in dimethyl sulfoxide (DMSO), and the solution was then added to the test solutions. In this case, a well to which inflammatory cytokine (TNFα, IL-1β, and IFNγ) and the sample were not added was provided as normal. A well to which inflammatory cytokine was added and the sample was not added was provided as control. After the cultivation, TEER was measured again, to evaluate whether the sample suppressed the reduction (decrease) of TEER due to the inflammatory cytokine.
The TEER reduction suppression ratio (%) due to the sample was determined according to the following formula from the TEER values of the well to which the sample was added, normal, and control.
TEER reduction suppression ratio (%)−100×((TEER of well to which sample is added)−(TEER of control))/((TEER of normal)−(TEER of control))
In this evaluation system, as the TEER reduction suppression ratio (%) is higher, an intestinal barrier function improvement effect is higher.
The intestinal barrier function improvement action was evaluated by the same method (the method for evaluating intestinal barrier function improvement action described in Example 4) as that in Example 4. In Example 5, the sample was added into the test solution so that a sample concentration was set to 10 μmol/L. The TEER reduction suppression ratio (%) of the sample was obtained according to the formula from the TEER values of a well to which the sample was added, normal, and control in the same manner as in Example 4.

Compound | Relative value of TEER reduction suppression ratio of gallate type compound (non-gallate type compound taken as 1)
O=C(O[C@@H]1Cc2c(O)cc(O)cc2O[C@@H]1c1ccc(O)c(O)c1)c1cc(O)c(O)c(O)c1 [Epicatechin gallate] | 2.5
O=C(O[C@@H]1Cc2c(O)cc(O)cc2O[C@H]1c1cc(O)c(O)c(O)c1)c1cc(O)c(O)c(O)c1 [Gallocatechin gallate] | 3.2

Same assay, conditions: Homo sapiens, Caco-2, 48 h; sample 10 μM (10 μmol/L); Example 5, Table 4; read-out: TEER reduction suppression ratio (%)

Compound | inhibition at 10 µM [%]
O=C(OC[C@H]1O[C@@H](OC(=O)c2cc(O)c(O)c(O)c2)[C@H](OC(=O)c2cc(O)c(O)c(O)c2)[C@@H](OC(=O)c2cc(O)c(O)c(O)c2)[C@@H]1OC(=O)c1cc(O)c(O)c(O)c1)c1cc(O)c(O)c(O)c1 [1,2,3,4,6-penta-O-galloyl-β-D-glucose] | 64
O=C(OC[C@H]1O[C@@H](OC(=O)c2cc(O)c(O)c(O)c2)[C@H](OC(=O)c2cc(O)c(O)c(O)c2)[C@@H](OC(=O)c2cc(O)c(O)c(O)c2)[C@@H]1O)c1cc(O)c(O)c(O)c1 [1,2,3,6-tetra-O-galloyl-β-D-glucose] | 98
O=C(OC[C@H]1O[C@@H](OC(=O)c2cc(O)c(O)c(O)c2)[C@H](OC(=O)c2cc(O)c(O)c(O)c2)[C@@H](O)[C@@H]1OC(=O)c1cc(O)c(O)c(O)c1)c1cc(O)c(O)c(O)c1 [1,2,4,6-tetra-O-galloyl-β-D-glucose] | 80
O=C(OC[C@H]1O[C@@H](OC(=O)c2cc(O)c(O)c(O)c2)[C@H](O)[C@@H](O)[C@@H]1OC(=O)c1cc(O)c(O)c(O)c1)c1cc(O)c(O)c(O)c1 [1,4,6-tri-O-galloyl-β-D-glucose] | 56
O=C(OC[C@H]1O[C@@H](O)[C@H](OC(=O)c2cc(O)c(O)c(O)c2)[C@@H](OC(=O)c2cc(O)c(O)c(O)c2)[C@@H]1OC(=O)c1cc(O)c(O)c(O)c1)c1cc(O)c(O)c(O)c1 [2,3,4,6-tetra-O-galloyl-β-D-glucose] | 93
O=C(O[C@@H]1COC(=O)c2cc(O)c(O)c(O)c2-c2c(cc(O)c(O)c2O)C(=O)O[C@H]1[C@@H]1OC(=O)c2cc(O)c(O)c(O)c2-c2c(O)c(O)c(O)c3c2C(=O)O[C@H]1[C@@H]3O)c1cc(O)c(O)c(O)c1 [Casuarinin] | 82
O=C1O[C@H]2[C@@H]3OC(=O)c4cc(O)c(O)c(O)c4-c4c(cc(O)c(O)c4O)C(=O)OC[C@H]2O[C@@H](OC(=O)c2cc(O)c(O)c(O)c2)[C@@H]3OC(=O)c2cc(O)c(O)c3c2[C@@H]2C1=CC(=O)[C@](O)(O3)C2(O)O [Geranlin, geraniin] | 83
O=C1OC[C@H]2OC(O)[C@@H]3OC(=O)c4cc(O)c(O)c(O)c4-c4c(cc(O)c(O)c4O)C(=O)O[C@H]3[C@@H]2OC(=O)c2cc(O)c(O)c(O)c2-c2c1cc(O)c(O)c2O (some centres unmarked) [Pedunculagin] | 72
O=C(O)c1cc(O)c(O)c(O)c1Oc1cc2c(c(O)c1O)-c1c(cc(O)c(O)c1O)C(=O)O[C@@H]1C(COC2=O)OC(O)C2OC(=O)c3cc(O)c(O)c(O)c3-c3c(cc(O)c(O)c3O)C(=O)O[C@H]21 (some centres unmarked) [Praecoxin A] | 74
O=c1c(O)c(-c2ccc(O)c(O)c2)oc2cc(O)cc(O)c12 [quercetin, reference compound] | 38

Same assay, conditions: Homo sapiens, Caco-2; sample 10 μM; TNFα 40 ng/mL, IL-1β 20 ng/mL, IFNγ 10 ng/mL; 48 hours; Table 2; read-out: TEER reduction suppression ratio (%)

Compound | inhibition at 10 µM [%]
O=C(O[C@@H]1Cc2c(O)cc(O)cc2O[C@@H]1c1ccc(O)c(O)c1)c1cc(O)c(O)c(O)c1 [Epicatechin gallate] | 35
Oc1cc(O)c2c(c1)O[C@H](c1ccc(O)c(O)c1)[C@H](O)C2 [Epicatechin, reference compound] | 14
O=C(O[C@@H]1Cc2c(O)cc(O)cc2O[C@H]1c1cc(O)c(O)c(O)c1)c1cc(O)c(O)c(O)c1 [Gallocatechin gallate] | 60
Oc1cc(O)c2c(c1)O[C@H](c1cc(O)c(O)c(O)c1)[C@@H](O)C2 [Gallocatechin, reference compound] | 19

Same assay, conditions: sample 10 μM (10 μmol/L); Example 5, Table 4

Compound | TEER reduction suppression ratio (%)
O=C(O[C@H]1COC(=O)c2cc(O)c(O)c(O)c2-c2c(cc(O)c(O)c2O)C(=O)O[C@H]1C1OC(=O)c2cc(O)c(O)c(O)c2-c2c(O)c(O)c(O)c3c2C(=O)O[C@H]1[C@@H]3c1c(O)cc(O)c2c1OC(c1ccc(O)c(O)c1)C(O)C2)c1cc(O)c(O)c(O)c1 (some centres unmarked) [Stenophyllanin A, stenophyllanin A] | 96
O=C(O[C@H]1[C@@H]2OC(=O)c3cc(O)c(O)c(O)c3-c3c(cc(O)c(O)c3O)C(=O)OC[C@H]2OC(O)[C@@H]1OC(=O)c1cc(O)c(O)c(O)c1)c1cc(O)c(O)c(O)c1 (some centres unmarked) [Tellimagrandin I, tellimagrandin I] | 65
stenophyllanin B | 126

Same assay, conditions: sample 10 μM; TNFα 40 ng/mL, IL-1β 20 ng/mL, IFNγ 10 ng/mL; 48 hours; Table 2

Compound | TEER reduction suppression ratio (%)
Catechin [reference compound] | 15
